Test results from patent publication US11708348B2, “Protease inhibitors for treatment of coronavirus infections” (The Scripps Research Institute, priority 2021, dated 2023).
Where two headings read alike, the source gives them in different places.

Test system: SARS-CoV-2 strain USA-WA1/2020
Experiment: microbe, parasite or virus in culture
Format: cell-based
Settings: Severe acute respiratory syndrome coronavirus 2, HeLa-ACE2, 24 h, read-out: EC50, uM (Hela)
[1] = HeLa-ACE2 cells, SARS-CoV-2 infection, 24 h

Row | Compound | EC50 [1] | EC50
1 | CC(C)(C)NC(=O)C(=O)N1CC2(CCCC2)CC1C(=O)N[C@@H](C[C@@H]1CCNC1=O)C(=O)COC(F)(F)F (stereo partly drawn) [Compound 657, 2-(2-(tert-butylamino)-2-oxoacetyl)-N-((S)-3-oxo-1-((S)-2-oxopyrrolidin-3-yl)-4-(trifluoromethoxy)butan-2-yl)-2-azaspiro[4.4]nonane-3-carboxamide] | < 0.05 µM | –
2 | CC(C)(C)C[C@@H](O)C(=O)N1CC2(CC2)C[C@H]1C(=O)N[C@@H](C[C@@H]1CCNC1=O)C(=O)COC(F)(F)F [Compound 658, (S)-5-((R)-2-hydroxy-4,4-dimethylpentanoyl)-N-((S)-3-oxo-1-((S)-2-oxopyrrolidin-3-yl)-4-(trifluoromethoxy)butan-2-yl)-5-azaspiro[2.4]heptane-6-carboxamide] | < 0.05 µM | –
3 | O=C1NCC[C@H]1C[C@H](NC(=O)[C@@H]1[C@H]2CCC[C@H]2CN1C(=O)c1noc2ccc(Cl)cc12)C(=O)COC(F)(F)F [Compound 659, (1S,3aR,6aS)-2-(5-chlorobenzo[d]isoxazole-3-carbonyl)-N-((S)-3-oxo-1-((S)-2-oxopyrrolidin-3-yl)-4-(trifluoromethoxy)butan-2-yl)octahydrocyclopenta[c]pyrrole-1-carboxamide] | < 0.05 µM | –
4 | CN[C@H](CC(C)C)C(=O)N1CC2(CC2)C[C@H]1C(=O)N[C@@H](C[C@@H]1CCNC1=O)C(=O)COC(F)(F)F [Compound 660, (S)-5-(methyl-D-leucyl)-N-((S)-3-oxo-1-((S)-2-oxopyrrolidin-3-yl)-4-(trifluoromethoxy)butan-2-yl)-5-azaspiro[2.4]heptane-6-carboxamide] | 0.05 to 0.2 µM | –
5 | O=C1NCC[C@H]1C[C@H](NC(=O)[C@@H]1CC2(CC2)CN1C(=O)C1CCC(F)(F)CC1)C(=O)COC(F)(F)F [Compound 661, (S)-5-(4,4-difluorocyclohexane-1-carbonyl)-N-((S)-3-oxo-1-((S)-2-oxopyrrolidin-3-yl)-4-(trifluoromethoxy)butan-2-yl)-5-azaspiro[2.4]heptane-6-carboxamide] | 0.05 to 0.2 µM | –
6 | C=CC[C@@H](O)C(=O)N1CC2(CC2)C[C@H]1C(=O)N[C@@H](C[C@@H]1CCNC1=O)C(=O)COC(F)(F)F [Compound 662, (S)-5-((R)-2-hydroxypent-4-enoyl)-N-((S)-3-oxo-1-((S)-2-oxopyrrolidin-3-yl)-4-(trifluoromethoxy)butan-2-yl)-5-azaspiro[2.4]heptane-6-carboxamide] | 0.05 to 0.2 µM | –
7 | O=C1NCC[C@H]1C[C@H](NC(=O)[C@@H]1CC2(CC2)CN1C(=O)c1cc2cccc(Cl)c2[nH]1)C(=O)COC(F)(F)F [Compound 663, (S)-5-(7-chloro-1H-indole-2-carbonyl)-N-((S)-3-oxo-1-((S)-2-oxopyrrolidin-3-yl)-4-(trifluoromethoxy)butan-2-yl)-5-azaspiro[2.4]heptane-6-carboxamide] | < 0.05 µM | –
8 | CC(C)(C)C(=O)N1CC2(CC2)C[C@H]1C(=O)N[C@@H](C[C@@H]1CCNC1=O)C(=O)COC(F)(F)F [Compound 665, (S)-N-((S)-3-oxo-1-((S)-2-oxopyrrolidin-3-yl)-4-(trifluoromethoxy)butan-2-yl)-5-pivaloyl-5-azaspiro[2.4]heptane-6-carboxamide] | 0.05 to 0.2 µM | –
9 | COc1ccc(/C=C/C[C@@H](O)C(=O)N2CC3(CC3)C[C@H]2C(=O)N[C@@H](C[C@@H]2CCNC2=O)C(=O)COC(F)(F)F)cc1 [Compound 666, (S)-5-((R,E)-2-hydroxy-5-(4-methoxyphenyl)pent-4-enoyl)-N-((S)-3-oxo-1-((S)-2-oxopyrrolidin-3-yl)-4-(trifluoromethoxy)butan-2-yl)-5-azaspiro[2.4]heptane-6-carboxamide] | 0.05 to 0.2 µM | –
10 | O=C1NCC[C@H]1C[C@H](NC(=O)[C@@H]1CC2(CC2)CN1C(=O)[C@H](O)C/C=C/c1ccc(F)cc1)C(=O)COC(F)(F)F [Compound 667, (S)-5-((R,E)-5-(4-fluorophenyl)-2-hydroxypent-4-enoyl)-N-((S)-3-oxo-1-((S)-2-oxopyrrolidin-3-yl)-4-(trifluoromethoxy)butan-2-yl)-5-azaspiro[2.4]heptane-6-carboxamide] | 0.05 to 0.2 µM | –
11 | O=C1NCC[C@H]1C[C@H](NC(=O)[C@@H]1CC2(CC2)CN1C(=O)CNS(=O)(=O)Nc1ccccc1)C(=O)COC(F)(F)F [Compound 669, (S)-N-((S)-3-oxo-1-((S)-2-oxopyrrolidin-3-yl)-4-(trifluoromethoxy)butan-2-yl)-5-((N-phenylsulfamoyl)glycyl)-5-azaspiro[2.4]heptane-6-carboxamide] | 0.05 to 0.2 µM | –
12 | O=C1NCC[C@H]1C[C@H](NC(=O)[C@@H]1CC2(CC2)CN1C(=O)CCNS(=O)(=O)Nc1ccccc1)C(=O)COC(F)(F)F [Compound 670, (S)-N-((S)-3-oxo-1-((S)-2-oxopyrrolidin-3-yl)-4-(trifluoromethoxy)butan-2-yl)-5-(3-((N-phenylsulfamoyl)amino)propanoyl)-5-azaspiro[2.4]heptane-6-carboxamide] | 0.2 to 0.5 µM | –
13 | CC(C)C[C@@H](O)C(=O)N[C@@H](Cc1cccc(F)c1)C(=O)N[C@@H](C[C@@H]1CCNC1=O)C(=O)COC(F)(F)F [Compound 671, (R)-N-((S)-3-(3-fluorophenyl)-1-oxo-1-(((S)-3-oxo-1-((S)-2-oxopyrrolidin-3-yl)-4-(trifluoromethoxy)butan-2-yl)amino)propan-2-yl)-2-hydroxy-4-methylpentanamide] | < 0.05 µM | –
14 | O=C1NCC[C@H]1C[C@H](NC(=O)[C@@H]1CC2(CC2)CN1C(=O)CNCC(F)(F)F)C(=O)COC(F)(F)F [Compound 672, (S)-N-((S)-3-oxo-1-((S)-2-oxopyrrolidin-3-yl)-4-(trifluoromethoxy)butan-2-yl)-5-((2,2,2-trifluoroethyl)glycyl)-5-azaspiro[2.4]heptane-6-carboxamide] | 0.05 to 0.2 µM | –
15 | O=C1NCC[C@H]1C[C@H](NC(=O)[C@@H]1CC2(CC2)CN1C(=O)COCC(F)(F)F)C(=O)COC(F)(F)F [Compound 673, (S)-N-((S)-3-oxo-1-((S)-2-oxopyrrolidin-3-yl)-4-(trifluoromethoxy)butan-2-yl)-5-(2-(2,2,2-trifluoroethoxy)acetyl)-5-azaspiro[2.4]heptane-6-carboxamide] | 0.05 to 0.2 µM | –
16 | O=C(C(=O)N1CC2(CC2)C[C@H]1C(=O)N[C@@H](C[C@@H]1CCNC1=O)C(=O)COC(F)(F)F)c1ccccc1 [Compound 674, (S)-N-((S)-3-oxo-1-((S)-2-oxopyrrolidin-3-yl)-4-(trifluoromethoxy)butan-2-yl)-5-(2-oxo-2-phenylacetyl)-5-azaspiro[2.4]heptane-6-carboxamide] | 0.05 to 0.2 µM | –
17 | CS(=O)(=O)NC/C=C/C[C@@H](O)C(=O)N1CC2(CC2)C[C@H]1C(=O)N[C@@H](C[C@@H]1CCNC1=O)C(=O)COC(F)(F)F [Compound 675, (S)-5-((R,E)-2-hydroxy-6-(methylsulfonamido)hex-4-enoyl)-N-((S)-3-oxo-1-((S)-2-oxopyrrolidin-3-yl)-4-(trifluoromethoxy)butan-2-yl)-5-azaspiro[2.4]heptane-6-carboxamide] | 0.2 to 0.5 µM | –
18 | CNC(=O)C(=O)N1CC2(CC2)C[C@H]1C(=O)N[C@@H](C[C@@H]1CCNC1=O)C(=O)COC(F)(F)F [Compound 676, (S)-5-(2-(methylamino)-2-oxoacetyl)-N-((S)-3-oxo-1-((S)-2-oxopyrrolidin-3-yl)-4-(trifluoromethoxy)butan-2-yl)-5-azaspiro[2.4]heptane-6-carboxamide] | 0.05 to 0.2 µM | –
19 | CNC(=O)C(=O)N[C@@H](Cc1cccc(F)c1)C(=O)N[C@@H](C[C@@H]1CCNC1=O)C(=O)COC(F)(F)F [Compound 677, N1-((S)-3-(3-fluorophenyl)-1-oxo-1-(((S)-3-oxo-1-((S)-2-oxopyrrolidin-3-yl)-4-(trifluoromethoxy)butan-2-yl)amino)propan-2-yl)-N2-methyloxalamide] | < 0.05 µM | –
20 | CC(F)(F)CCC(=O)N1CC2(CC2)C[C@H]1C(=O)N[C@@H](C[C@@H]1CCNC1=O)C(=O)COC(F)(F)F [Compound 678, (S)-5-(4,4-difluoropentanoyl)-N-((S)-3-oxo-1-((S)-2-oxopyrrolidin-3-yl)-4-(trifluoromethoxy)butan-2-yl)-5-azaspiro[2.4]heptane-6-carboxamide] | < 0.05 µM | –
21 | O=C1NCC[C@H]1C[C@H](NC(=O)[C@@H]1CC2(CC2)CN1C(=O)[C@@H]1CCCO1)C(=O)COC(F)(F)F [Compound 679, (S)-N-((S)-3-oxo-1-((S)-2-oxopyrrolidin-3-yl)-4-(trifluoromethoxy)butan-2-yl)-5-((S)-tetrahydrofuran-2-carbonyl)-5-azaspiro[2.4]heptane-6-carboxamide] | 0.2 to 0.5 µM | –
22 | O=C1NCC[C@H]1C[C@H](NC(=O)[C@@H]1CC2(CC2)CN1C(=O)C1(NC(=O)C(F)(F)F)CCC(F)(F)CC1)C(=O)COC(F)(F)F [Compound 680, (S)-5-(4,4-difluoro-1-(2,2,2-trifluoroacetamido)cyclohexane-1-carbonyl)-N-((S)-3-oxo-1-((S)-2-oxopyrrolidin-3-yl)-4-(trifluoromethoxy)butan-2-yl)-5-azaspiro[2.4]heptane-6-carboxamide] | – | 0.2 to 0.5 µM
23 | O=C1NCC[C@H]1C[C@H](NC(=O)[C@@H]1CC2(CC2)CN1C(=O)C(O)(c1ccccc1)C(F)(F)F)C(=O)COC(F)(F)F (stereo partly drawn) [Compound 681, (6S)-N-((S)-3-oxo-1-((S)-2-oxopyrrolidin-3-yl)-4-(trifluoromethoxy)butan-2-yl)-5-(3,3,3-trifluoro-2-hydroxy-2-phenylpropanoyl)-5-azaspiro[2.4]heptane-6-carboxamide] | 0.05 to 0.2 µM | –
24 | O=C1NCC[C@H]1C[C@H](NC(=O)[C@@H]1CC2(CC2)CN1C(=O)C1CCOCC1)C(=O)COC(F)(F)F [Compound 682, (S)-N-((S)-3-oxo-1-((S)-2-oxopyrrolidin-3-yl)-4-(trifluoromethoxy)butan-2-yl)-5-(tetrahydro-2H-pyran-4-carbonyl)-5-azaspiro[2.4]heptane-6-carboxamide] | 0.2 to 0.5 µM | –
25 | O=C1NCC[C@H]1C[C@H](NC(=O)[C@@H]1CC2(CC2)CN1C(=O)CCC(F)F)C(=O)COC(F)(F)F [Compound 683, (S)-5-(4,4-difluorobutanoyl)-N-((S)-3-oxo-1-((S)-2-oxopyrrolidin-3-yl)-4-(trifluoromethoxy)butan-2-yl)-5-azaspiro[2.4]heptane-6-carboxamide] | 0.05 to 0.2 µM | –
